“And” between values parts separate entries of the source, which are not always exact repeats. Identical values can stand only once. “Also recorded” adds a separate entry of the source.
Tests used:
Solubility = format: physicochemical
[1] = system: transplantable mouse tumour originating in plasma cells; assay: Depth of tumour necrosis after photosensitising drug and illumination (10J/cm^2) in mice; format: in vivo; conditions: for Depths of tumour necrosis: 10J/cm^2 at 660nm, individual values; for effectiveness in DMSO versus alkali (in words): DMSO compared with alkali (NaOH); for effectiveness as photosensitiser for tumour tissue (in words): mouse assay
Protocol: The photosensitising drug is given intravenously in aqueous medium or intraperitoneally in DMSO, the tumour exposed to light at the appropriate wavelength and the depth of tumour necrosis measured. […] Results are shown in graph. The relative potency is determined by comparing amounts of drugs required to produce equal effects.
A preliminary comparison was made. […] The light dose was 10J/cm^2 at 660nm.

cranium (brain) of mice = assay: Cerebral photosensitisation: deaths within 48 hours after white light to the cranium; format: in vivo, mouse; conditions: 0.033 μM/kg i.v., 24 hours later 20J/cm^2 white light to cranium
Protocol: Deaths within 48 hours (due to acute cerebral oedema) were: […]

brain vascular lining = assay: Cerebral photosensitisation: Evans blue in the brain after white light to the cranium; format: in vivo, mouse; conditions: 0.033 μM/kg i.v., 20J/cm^2 white light; dye 4 hours after exposure, measured 1 hour later; groups of 5 mice
Protocol: Normally, very little is found, and this is largely dye still circulating in the blood 1 hour after injection, and not in the brain substance itself. An increase is produced by agents that damage the brain vascular lining, allowing dye to enter the brain substance.

depilated skin = assay: Skin photosensitisation: increase in skin thickness after illumination; format: in vivo, mouse
Protocol: The increase in skin thickness was measured 4 hours after illumination.

[2] = system: transplantable mouse tumour originating in plasma cells; assay: Depth of tumour necrosis after photosensitising drug and illumination (10J/cm^2) in mice; format: in vivo; conditions: for Necrosis (after 10J/cm^2), depth: ± S.E.M.

Compound: Oc1ccc(-c2c3nc(c(-c4ccc(O)cc4)c4ccc([nH]4)c(-c4ccc(O)cc4)c4nc(c(-c5ccc(O)cc5)c5ccc2[nH]5)C=C4)C=C3)cc1 [HK7, 5,10,15,20-tetra (4-hydroxyphenyl) porphyrin]
- solubility in neutral aqueous media (Solubility): relatively insoluble in neutral aqueous media
- Depths of tumour necrosis ([1]; 33 μM/kg, NaOH-DMSO): 0.5 mm and 1.5 mm and 4.5 mm
- Depths of tumour necrosis ([1]; 67 μM/kg, DMSO): 4 mm and 5 mm and 6 mm
- effectiveness in DMSO versus alkali (in words) [1]: rather more effective administered in DMSO than in alkali
- effectiveness as photosensitiser for tumour tissue (in words) [1]: more effective photosensitiser for tumour tissue in animal assay than is HpD
- Deaths within 48 hours (due to acute cerebral oedema) (cranium (brain) of mice): 0/5
- amount of Evans blue in the brain (brain vascular lining): 23.6 ± 3.65 μg dye/brain
- skin photosensitisation, by 1 week (depilated skin; 1 week, equimolar doses, 10J/cm^2, HK7 vs HpD): little difference
- skin photosensitisation, by 2 weeks (depilated skin; 2 weeks, maximum dose, 10J/cm^2): no longer sensitises to this dose of light
- skin photosensitisation, 1 day after porphyrin injection (depilated skin; 1 day, equimolar doses, 10J/cm^2 (625nm HpD, 656nm HK7)): more potent skin sensitiser than HpD
- skin photosensitisation, potency and persistence (depilated skin; HK7 compared with HpD, overall): less persistant than that caused by HpD; also recorded: more potent skin photosensitiser than HpD, but that the effect is more transient
- Necrosis (after 10J/cm^2), depth ([2]; 6.25 μM/kg, DMSO, 656 nm): 1.17 ± 0.31 mm and 0.85 ± 0.38 mm
- Necrosis (after 10J/cm^2), depth ([2]; 12.5 μM/kg, DMSO, 656 nm): 2.86 ± 0.26 mm and 2.50 ± 0.52 mm
- Necrosis (after 10J/cm^2), depth ([2]; 12.5 μM/kg, NaOH, 654 nm): 2.40 ± 0.10 mm
- Necrosis (after 10J/cm^2), depth ([2]; 25 μM/kg, DMSO, 656 nm): 3.54 ± 0.48 mm and 2.63 ± 0.56 mm
- Necrosis (after 10J/cm^2), depth ([2]; 25 μM/kg, NaOH, 654 nm): 3.64 ± 0.39 mm
- Necrosis (after 10J/cm^2), depth ([2]; 25 μM/kg, NaOH, 669 nm): 2.75 ± 0.25 mm and 2.38 ± 0.24 mm
- Necrosis (after 10J/cm^2), depth ([2]; 50 μM/kg, DMSO, 656 nm): 5.06 ± 0.48 mm
- Necrosis (after 10J/cm^2), depth ([2]; 50 μM/kg, NaOH, 669 nm): 3.32 ± 0.63 mm and 3.25 ± 0.37 mm
- effectiveness in tumour necrosis (in words) ([2]; 6.25 μm/kg): reasonably effective
- tumour sensitisation at the dose of the cerebral test (in words) ([2]; 24 hours after dose, see graph): substantial tumour sensitisation
- amount of drug required to produce equal effect (HK7 vs HpD) ([2]; i.v., 10J/cm^2, 630nm HpD, 658nm HK7): ~0.0125 µM/kg

Compound: Oc1ccc(-c2c3nc(c(-c4ccc(O)cc4)c4ccc([nH]4)c(-c4ccc(O)cc4)c4nc(c(-c5ccc(O)cc5)c5ccc2[nH]5)C=C4)C=C3)cc1 [HK7.4EtOH]
- Depths of tumour necrosis ([1]; 33 μM/kg, NaOH-DMSO): 0.25 mm and 0.5 mm and 0.75 mm and 2 mm
- Depths of tumour necrosis ([1]; 67 μM/kg, DMSO): 3.75 mm and 4 mm (2×) and 5 mm

Compound: Oc1ccc(-c2c3nc(c(-c4ccc(O)cc4)c4ccc([nH]4)c(-c4ccc(O)cc4)c4nc(c(-c5ccc(O)cc5)c5ccc2[nH]5)C=C4)C=C3)cc1 [K-HK7]
- Necrosis (after 10J/cm^2), depth ([2]; 12.5 μM/kg, DMSO, 656 nm): 2.50 ± 0.44 mm
- Necrosis (after 10J/cm^2), depth ([2]; 25 μM/kg, DMSO, 656 nm): 3.32 ± 0.59 mm
- Necrosis (after 10J/cm^2), depth ([2]; 50 μM/kg, NaOH, 654 nm): 5.06 ± 0.12 mm

Compound: Oc1ccc(-c2c3nc(c(-c4ccc(O)cc4)c4ccc([nH]4)c(-c4ccc(O)cc4)c4nc(c(-c5ccc(O)cc5)c5ccc2[nH]5)C=C4)C=C3)cc1 [Li-HK7]
- Necrosis (after 10J/cm^2), depth ([2]; 25 μM/kg, DMSO, 656 nm): 3.31 ± 0.40 mm and 3.00 ± 0.72 mm and 3.00 ± 0.51 mm
- Necrosis (after 10J/cm^2), depth ([2]; 50 μM/kg, DMSO, 656 nm): 2.46 ± 0.38 mm and 3.50 ± 0.41 mm
- necrosis depth ([2]; 12.5 μm/kg): below 1.0 mm

Compound: Oc1ccc(-c2c3nc(c(-c4ccc(O)cc4)c4ccc([nH]4)c(-c4ccc(O)cc4)c4nc(c(-c5ccc(O)cc5)c5ccc2[nH]5)C=C4)C=C3)cc1 [Na-HK7]
- Necrosis (after 10J/cm^2), depth ([2]; 25 μM/kg, DMSO, 656 nm): 2.28 ± 0.47 mm
- Necrosis (after 10J/cm^2), depth ([2]; 50 μM/kg, DMSO, 656 nm): 2.80 ± 0.12 mm and 3.79 ± 0.29 mm
- Necrosis (after 10J/cm^2), depth ([2]; 50 μM/kg, NaOH, 664 nm): 3.15 ± 0.83 mm
- necrosis depth ([2]; 12.5 μm/kg): below 1.0 mm

Compound: Oc1cccc(-c2c3nc(c(-c4cccc(O)c4)c4ccc([nH]4)c(-c4cccc(O)c4)c4nc(c(-c5cccc(O)c5)c5ccc2[nH]5)C=C4)C=C3)c1 [meta-HK7]
- effectiveness in DMSO versus alkali (in words) [1]: equally effective in both
- effectiveness as photosensitiser for tumour tissue (in words) [1]: most active compound found
- Necrosis (after 10J/cm^2), depth ([2]; 1.56 μM/kg, DMSO, 648 nm): 0.65 ± 0.22 mm
- Necrosis (after 10J/cm^2), depth ([2]; 6.25 μM/kg, DMSO, 648 nm): 3.53 ± 0.49 mm and 2.88 ± 0.9 mm and 3.86 ± 0.18 mm
- Necrosis (after 10J/cm^2), depth ([2]; 6.25 μM/kg, NaOH, 648 nm): 3.78 ± 0.36 mm and 3.64 ± 0.34 mm
- Necrosis (after 10J/cm^2), depth ([2]; 12.5 μM/kg, DMSO, 648 nm): 4.44 ± 0.35 mm and 4.5 ± 0.5 mm
- Necrosis (after 10J/cm^2), depth ([2]; 12.5 μM/kg, NaOH, 648 nm): 3.25 ± 0.33 mm
- Necrosis (after 10J/cm^2), depth ([2]; 25.0 μM/kg, DMSO, 648 nm): 5.37 ± 0.55 mm
- Necrosis (after 10J/cm^2), depth ([2]; 50.0 μM/kg, DMSO, 648 nm): 4.63 ± 0.64 mm
- effectiveness in tumour necrosis (in words) ([2]; 1.56 μm/kg): some effect
- effectiveness in tumour necrosis (in words) ([2]; 3.12 μm/kg): effective

Compound: Oc1ccccc1-c1c2nc(c(-c3ccccc3O)c3ccc([nH]3)c(-c3ccccc3O)c3nc(c(-c4ccccc4O)c4ccc1[nH]4)C=C3)C=C2 [ortho-HK7, 5,10,15,20-TETRA(o-HYDROXYPHENYL) PORPHYRIN]
- Necrosis (after 10J/cm^2), depth ([2]; 6.25 μM/kg, DMSO, 648 nm): 2.45 ± 0.28 mm
- Necrosis (after 10J/cm^2), depth ([2]; 12.5 μM/kg, DMSO, 648 nm): 3.03 ± 0.29 mm
- Necrosis (after 10J/cm^2), depth ([2]; 25.0 μM/kg, DMSO, 648 nm): 4.21 ± 0.32 mm and 3.21 ± 0.56 mm
- Necrosis (after 10J/cm^2), depth ([2]; 50.0 μM/kg, DMSO, 648 nm): 4.25 ± 0.50 mm

Compound: O=S(=O)(O)c1ccc(-c2c3nc(c(-c4ccc(S(=O)(=O)O)cc4)c4ccc([nH]4)c(-c4ccc(S(=O)(=O)O)cc4)c4nc(c(-c5ccc(S(=O)(=O)O)cc5)c5ccc2[nH]5)C=C4)C=C3)cc1 [tetra-(p-hydroxysulphonyl phenyl) porphyrin, reference compound]
- necrosis depth ([2]; molar equivalent dose to HpD 67 μmol/kg, saline, 550 nm): 0.30±0.11 mm
